# Tests used:
# Assay in all cases: biochemical
# Parameters in all cases: DiscoverX KINOMEscan scanMAX competition binding panel, single concentration, percent of control; remaining binding: dose or concentration left out as unconfirmed
# Conditions in all cases: KINOMEscan binding, percent of control; read-out: Table S4_SCANMAX REPORT - related to Fig. 1 / Percent Control
# ADCK4 = target: T1, ADCK4 (Homo sapiens, UniProt Q96D53)
# T1 construct: gene COQ8B
# BMPR1B = BMPR1B (Homo sapiens, UniProt O00238)
# CSNK1G1 = CSNK1G1 (Homo sapiens, UniProt Q9HCP0)
# DLK = target: T2, DLK (Homo sapiens, UniProt Q12852)
# T2 construct: gene MAP3K12
# DYRK2 = DYRK2 (Homo sapiens, UniProt Q92630)
# FLT3(N841I) = FLT3(N841I) (Homo sapiens, UniProt P36888, N841I)
# FLT4 = FLT4 (Homo sapiens, UniProt P35916)
# GRK4 = GRK4 (Homo sapiens, UniProt P32298)
# KIT(V559D,T670I) = KIT(V559D,T670I) (Homo sapiens, UniProt P10721, T670I/V559D)
# MAP3K15 = MAP3K15 (Homo sapiens, UniProt Q6ZN16)
# MAPKAPK5 = MAPKAPK5 (Homo sapiens, UniProt Q8IW41)
# MRCKB = target: T3, MRCKB (Homo sapiens, UniProt Q9Y5S2)
# T3 construct: gene CDC42BPB
# NEK2 = NEK2 (Homo sapiens, UniProt P51955)
# PIM3 = PIM3 (Homo sapiens, UniProt Q86V86)
# PKMYT1 = PKMYT1 (Homo sapiens, UniProt Q99640)
# PKNB(M.tuberculosis) = PKNB(M.tuberculosis) (Mycobacterium tuberculosis, UniProt P9WI81)
# [1] = target: T4, RPS6KA5(Kin.Dom.2-C-terminal) (Homo sapiens, UniProt O75582)
# T4 construct: Kin.Dom.2-C-terminal
# [2] = target: T5, RSK2(Kin.Dom.2-C-terminal) (Homo sapiens, UniProt P51812)
# T5 construct: gene RPS6KA3; Kin.Dom.2-C-terminal
# DYRK2, sequence (Q92630 whole entry): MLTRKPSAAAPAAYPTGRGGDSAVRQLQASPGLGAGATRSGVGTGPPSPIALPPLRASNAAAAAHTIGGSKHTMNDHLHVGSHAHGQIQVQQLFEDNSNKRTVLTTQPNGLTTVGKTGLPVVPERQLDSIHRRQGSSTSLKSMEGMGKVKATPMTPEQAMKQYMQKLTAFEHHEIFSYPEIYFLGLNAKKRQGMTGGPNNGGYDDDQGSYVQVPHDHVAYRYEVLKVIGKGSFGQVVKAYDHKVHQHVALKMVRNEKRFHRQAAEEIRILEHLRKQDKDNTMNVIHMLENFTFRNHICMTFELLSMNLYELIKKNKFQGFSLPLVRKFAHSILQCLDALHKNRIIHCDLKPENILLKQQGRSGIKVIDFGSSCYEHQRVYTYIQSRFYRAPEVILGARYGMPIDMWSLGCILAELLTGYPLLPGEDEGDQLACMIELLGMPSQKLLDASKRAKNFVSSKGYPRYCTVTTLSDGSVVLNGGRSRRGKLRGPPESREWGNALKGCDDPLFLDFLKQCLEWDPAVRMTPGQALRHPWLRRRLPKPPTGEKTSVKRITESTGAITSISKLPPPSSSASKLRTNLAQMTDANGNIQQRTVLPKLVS
# CSNK1G1, sequence (Q9HCP0 whole entry): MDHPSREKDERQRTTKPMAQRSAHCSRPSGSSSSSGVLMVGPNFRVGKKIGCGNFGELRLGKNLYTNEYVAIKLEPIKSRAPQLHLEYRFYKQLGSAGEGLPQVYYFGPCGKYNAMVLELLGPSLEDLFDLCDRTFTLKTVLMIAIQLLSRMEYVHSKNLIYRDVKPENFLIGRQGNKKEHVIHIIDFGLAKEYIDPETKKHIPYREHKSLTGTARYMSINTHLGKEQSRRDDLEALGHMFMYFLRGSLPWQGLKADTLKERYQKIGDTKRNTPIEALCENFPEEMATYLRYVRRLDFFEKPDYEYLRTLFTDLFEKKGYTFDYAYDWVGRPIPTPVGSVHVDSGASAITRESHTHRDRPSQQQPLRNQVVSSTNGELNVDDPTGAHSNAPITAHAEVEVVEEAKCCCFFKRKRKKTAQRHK
# FLT4, sequence (P35916 whole entry): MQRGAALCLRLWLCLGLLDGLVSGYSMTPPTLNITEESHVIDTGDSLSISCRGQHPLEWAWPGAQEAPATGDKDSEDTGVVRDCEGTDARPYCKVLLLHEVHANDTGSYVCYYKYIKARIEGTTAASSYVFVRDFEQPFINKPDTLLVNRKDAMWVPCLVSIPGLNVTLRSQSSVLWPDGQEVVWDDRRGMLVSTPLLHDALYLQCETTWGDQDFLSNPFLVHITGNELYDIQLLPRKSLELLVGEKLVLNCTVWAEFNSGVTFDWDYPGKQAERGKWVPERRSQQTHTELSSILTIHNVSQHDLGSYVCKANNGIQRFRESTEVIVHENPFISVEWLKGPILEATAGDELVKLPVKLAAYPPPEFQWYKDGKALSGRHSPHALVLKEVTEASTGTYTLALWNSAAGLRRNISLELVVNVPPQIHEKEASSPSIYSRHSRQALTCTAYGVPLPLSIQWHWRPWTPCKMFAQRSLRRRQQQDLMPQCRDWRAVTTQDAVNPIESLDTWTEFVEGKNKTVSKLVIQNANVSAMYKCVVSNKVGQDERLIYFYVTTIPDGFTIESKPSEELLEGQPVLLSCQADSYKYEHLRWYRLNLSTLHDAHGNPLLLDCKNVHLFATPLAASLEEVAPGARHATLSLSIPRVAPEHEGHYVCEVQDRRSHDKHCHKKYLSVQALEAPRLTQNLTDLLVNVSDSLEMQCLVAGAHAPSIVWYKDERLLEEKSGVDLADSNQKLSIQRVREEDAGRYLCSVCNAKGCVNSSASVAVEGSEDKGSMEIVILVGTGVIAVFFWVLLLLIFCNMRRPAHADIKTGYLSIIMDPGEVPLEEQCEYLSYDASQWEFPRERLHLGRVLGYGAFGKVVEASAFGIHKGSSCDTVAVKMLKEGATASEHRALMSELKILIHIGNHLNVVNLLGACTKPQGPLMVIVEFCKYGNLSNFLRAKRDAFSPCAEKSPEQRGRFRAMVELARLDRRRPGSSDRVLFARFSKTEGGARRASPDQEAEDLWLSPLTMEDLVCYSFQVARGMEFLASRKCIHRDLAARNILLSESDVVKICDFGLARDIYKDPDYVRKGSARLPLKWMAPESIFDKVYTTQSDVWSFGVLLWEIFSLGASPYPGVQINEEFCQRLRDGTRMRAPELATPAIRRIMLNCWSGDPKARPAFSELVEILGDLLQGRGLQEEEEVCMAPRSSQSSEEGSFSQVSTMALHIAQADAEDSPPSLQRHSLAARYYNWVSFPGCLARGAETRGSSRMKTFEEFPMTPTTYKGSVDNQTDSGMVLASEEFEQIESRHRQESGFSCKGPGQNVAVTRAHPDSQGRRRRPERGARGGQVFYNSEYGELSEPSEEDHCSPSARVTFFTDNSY
# MAP3K15, sequence (Q6ZN16 whole entry): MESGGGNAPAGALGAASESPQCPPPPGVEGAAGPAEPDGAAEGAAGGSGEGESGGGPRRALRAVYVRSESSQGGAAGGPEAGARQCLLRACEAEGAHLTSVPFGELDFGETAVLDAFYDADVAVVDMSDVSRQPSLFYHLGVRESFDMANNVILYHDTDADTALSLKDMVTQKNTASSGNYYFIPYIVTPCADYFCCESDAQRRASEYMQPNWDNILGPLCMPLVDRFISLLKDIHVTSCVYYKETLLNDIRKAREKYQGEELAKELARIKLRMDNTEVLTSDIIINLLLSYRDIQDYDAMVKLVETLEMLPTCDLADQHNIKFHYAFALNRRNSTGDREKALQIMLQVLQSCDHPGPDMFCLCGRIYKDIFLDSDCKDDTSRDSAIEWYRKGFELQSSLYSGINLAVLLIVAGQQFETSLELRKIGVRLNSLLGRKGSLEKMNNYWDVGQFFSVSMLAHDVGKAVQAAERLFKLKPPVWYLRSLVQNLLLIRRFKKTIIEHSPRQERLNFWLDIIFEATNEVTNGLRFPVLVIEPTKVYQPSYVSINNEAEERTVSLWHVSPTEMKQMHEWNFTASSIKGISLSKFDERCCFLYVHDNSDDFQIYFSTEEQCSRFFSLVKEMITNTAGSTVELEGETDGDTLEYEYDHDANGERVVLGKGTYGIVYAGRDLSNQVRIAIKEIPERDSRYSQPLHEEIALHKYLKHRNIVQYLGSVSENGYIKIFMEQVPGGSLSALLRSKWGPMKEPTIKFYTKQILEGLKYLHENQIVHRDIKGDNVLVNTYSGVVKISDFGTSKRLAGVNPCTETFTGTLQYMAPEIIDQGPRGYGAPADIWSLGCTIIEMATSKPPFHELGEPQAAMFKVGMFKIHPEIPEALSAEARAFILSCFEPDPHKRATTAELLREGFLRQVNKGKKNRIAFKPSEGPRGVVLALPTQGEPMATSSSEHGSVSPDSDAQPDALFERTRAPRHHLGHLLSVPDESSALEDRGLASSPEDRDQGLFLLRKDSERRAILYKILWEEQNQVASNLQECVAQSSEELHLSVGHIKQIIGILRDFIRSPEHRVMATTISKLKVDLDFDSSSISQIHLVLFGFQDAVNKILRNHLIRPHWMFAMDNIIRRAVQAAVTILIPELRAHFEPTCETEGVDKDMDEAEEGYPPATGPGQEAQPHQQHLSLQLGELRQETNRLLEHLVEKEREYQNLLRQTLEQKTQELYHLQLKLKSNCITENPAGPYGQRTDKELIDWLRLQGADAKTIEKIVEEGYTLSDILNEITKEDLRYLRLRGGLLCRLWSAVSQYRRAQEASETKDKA
# PKNB(M.tuberculosis), sequence (P9WI81 whole entry): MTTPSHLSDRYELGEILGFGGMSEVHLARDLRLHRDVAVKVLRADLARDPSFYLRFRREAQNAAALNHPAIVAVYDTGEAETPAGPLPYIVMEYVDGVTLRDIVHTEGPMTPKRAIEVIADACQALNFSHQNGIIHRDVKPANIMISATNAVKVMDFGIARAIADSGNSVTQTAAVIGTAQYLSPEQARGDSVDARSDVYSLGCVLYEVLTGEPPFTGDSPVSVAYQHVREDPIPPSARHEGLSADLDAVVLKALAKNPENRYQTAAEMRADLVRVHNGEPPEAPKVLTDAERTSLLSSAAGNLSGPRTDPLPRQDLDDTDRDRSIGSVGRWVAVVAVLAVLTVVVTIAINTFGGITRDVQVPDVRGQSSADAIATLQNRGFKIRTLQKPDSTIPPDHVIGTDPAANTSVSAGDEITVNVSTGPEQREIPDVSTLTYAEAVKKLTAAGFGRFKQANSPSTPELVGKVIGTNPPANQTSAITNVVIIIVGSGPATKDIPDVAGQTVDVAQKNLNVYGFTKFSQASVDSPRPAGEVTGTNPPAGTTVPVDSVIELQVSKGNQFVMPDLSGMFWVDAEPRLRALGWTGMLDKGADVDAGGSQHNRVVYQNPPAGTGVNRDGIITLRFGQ
compound,measurement,setting,value
c1ccc2c(c1)Sc1ccccc1N2CCN1CCOCC1 [J54],remaining binding,ADCK4,75%
same,remaining binding,BMPR1B,93%
same,remaining binding,CSNK1G1,100%
same,remaining binding,DLK,100%
same,remaining binding,DYRK2,83%
same,remaining binding,FLT3(N841I),99%
same,remaining binding,FLT4,96%
same,remaining binding,GRK4,54%
same,remaining binding,"KIT(V559D,T670I)",100%
same,remaining binding,MAP3K15,100%
same,remaining binding,MAPKAPK5,100%
same,remaining binding,MRCKB,95%
same,remaining binding,NEK2,100%
same,remaining binding,PIM3,47%
same,remaining binding,PKMYT1,100%
same,remaining binding,PKNB(M.tuberculosis),87%
same,remaining binding,[1],100%
same,remaining binding,[2],89%
